Test results published in article PMC12140300, “Development of Carbon‐11 Labeled Pyrimidine Derivatives as Novel Positron Emission Tomography (PET) Agents Enabling Brain Sigma‐1 Receptor Imaging” (Advanced Science, 2025).

Tested on: σ1R
Test: NHP PET/MR imaging with kinetic modelling, baseline and self-blocking
Assay type: in vivo
Details: for VT, Logan graphical method [T* = 40 min] / VT, Two tissue compartment model [2TCM] / VT, One tissue compartment model [1TCM]: male NHP brain
Description: Next, we conducted PET/MR imaging studies using [^11C]CNY‐01 in non‐human primates (NHP) to evaluate its safety and translational potential in large animals further. A 90‐minute dynamic PET scan with [^11C]CNY‐01 focusing on the head of a male rhesus monkey. We performed a full kinetic analysis with one‐ and two‐tissue compartment models (1TCM and 2TCM), as well as logan graphical analysis (LGA), using metabolite‐corrected arterial input function (AIF), similar to previous studies,^[ [44], [45] ^] to determine which model best suit kinetics of [^11C]CNY‐01. In most brain regions, 2TCM provided a better fit than 1TCM, as indicated by the Akaike information criterion (AIC) and model selection criterion (MSC) (Table 1). […] To test whether non‐parametric graphical approaches can be used for [^11C]CNY‐01, we performed LGA with an assumption of steady‐state time (T*) of 40 mins (Table 1). […] For voxel‐wise estimation of VT across the whole brain, we then used LGA (Figure 4A).
We also performed a self‐blocking scan for [^11C]CNY‐01, administering 0.5 mg kg^−1 of unlabeled CNY‐01 10 min before the radiotracer. The metabolism of the radiotracer in the blocking scan was similar to that of the baseline (Figure S6, Supporting Information). The radioactivity concentration was lower in arterial blood samples in the blocking scan compared to the baseline, while brain uptake was higher in the blocking scan (Figure S6, Supporting Information). […] The variation of the radiotracer plasma protein binding (fp) between baseline and blocking scan may explain our observation in a way similar to that of the previous study.^[ [46] ^] Nonetheless, due to this study's lack of fp data, the exact explanation for our observation remains to be determined further.
The PET/MR imaging protocol in non‐human primates (NHP) followed our previous work.^[ [55], [56] ^] A male rhesus macaque (8.55 kg) was anesthetized with an intramuscular injection of xylazine (0.5–2.0 mg kg^−1) and ketamine (10 mg kg^−1), followed by endotracheal intubation. V‐ and A‐lines were inserted, and anesthesia was maintained using isoflurane. [^11C] CNY‐01 was administered after antecubital catheterization, with an arterial line prepared for radiometabolite analysis. In the self‐blocking scan, the same animal (6.80 kg) was scanned with a 10‐min pre‐treatment of 0.5 mg kg^−1 unlabeled CNY‐01. PET/MR imaging data were acquired using a Siemens TIM‐Trio scanner (3T) equipped with a Siemens BrainPET insert module and an in‐house‐built 8‐channel head coil. The dynamic scan began, followed by administration of [^11C] CNY‐01 (5.1 mCi). The list mode data were reconstructed using the 3D ordinary Poisson expectation‐maximization algorithm (16 subsets and 6 iterations) with detector efficiency, decay, dead time, random coincidences, scatter, and attenuation corrections with gradually increasing time frams. All images were reconstructed into 153 slices with 256 × 256 pixels and 1.25‐mm isotropic voxel size. High‐resolution structural MRI scans were acquired by using a multi‐echo magnetization‐prepared rapid gradient echo (ME‐MPRAGE) sequence with parameters as follows: TR = 2400 ms; TE1/TE2/TE3/TE4 = 1.57/3.29/5.01/6.73 ms; inversion time = 1200 ms; flip angle = 9°; spatial resolution = 1 mm isotropic.
For macaque brain PET/MR imaging analysis, we applied the INIA19 Template^[ [57] ^] and NeuroMaps Atlas in accordance with our prior work.^[ [58] ^] In brief, reconstructed PET images were registered to the INIA19 Primate Brain Atlas^[ [57] ^] with the following processing steps^[ [59] ^]: The high‐resolution T1‐weighted MR image, co‐registered with the PET image, was first affine‐registered to the INIA19 atlas. By using the same transformation, dynamic PET data was registered to the atlas. A spatial smoothing with a 6‐mm FWHM Gaussian kernel was applied to PET images. Twenty ROIs determined in the INIA19 atlas were used to derive regional TACs. […]

[1] = ACC, 10-min pretreatment of unlabeled CNY-01 (0.5 mg kg^−1)
[2] = Amygdala, 10-min pretreatment of unlabeled CNY-01 (0.5 mg kg^−1)
[3] = CBL, 10-min pretreatment of unlabeled CNY-01 (0.5 mg kg^−1)
[4] = Caudate, 10-min pretreatment of unlabeled CNY-01 (0.5 mg kg^−1)
[5] = Globus-pallidus, 10-min pretreatment of unlabeled CNY-01 (0.5 mg kg^−1)
[6] = Hippocampus, 10-min pretreatment of unlabeled CNY-01 (0.5 mg kg^−1)
[7] = Hypothalamus, 10-min pretreatment of unlabeled CNY-01 (0.5 mg kg^−1)
[8] = Ifc, 10-min pretreatment of unlabeled CNY-01 (0.5 mg kg^−1)
[9] = Insula, 10-min pretreatment of unlabeled CNY-01 (0.5 mg kg^−1)
[10] = Midbrain, 10-min pretreatment of unlabeled CNY-01 (0.5 mg kg^−1)
[11] = Motor, 10-min pretreatment of unlabeled CNY-01 (0.5 mg kg^−1)

## Cc1nc(-c2ccc(O[11CH3])cc2)nc(OCCCN2CCCCC2)c1Cl [[^11C]CNY-01]
0.5 mg kg^−1 unlabeled CNY-01 10 min before the radiotracer, NHP
  VT in blocking scan compared to baseline: higher VT across the brain
[1]
  VT, Logan graphical method [T* = 40 min]: 29.37 ml/cm^3
  VT, Two tissue compartment model [2TCM]: 25.84 ml/cm^3
ACC, baseline
  VT, Logan graphical method [T* = 40 min]: 13.32 mL cm^−3
  VT, One tissue compartment model [1TCM]: 9.76 mL cm^−3
  VT, Two tissue compartment model [2TCM]: 15.87 mL cm^−3
[2]
  VT, Logan graphical method [T* = 40 min]: 34.47 ml/cm^3
  VT, Two tissue compartment model [2TCM]: 29.18 ml/cm^3
Amygdala, baseline
  VT, Logan graphical method [T* = 40 min]: 14.75 mL cm^−3
  VT, One tissue compartment model [1TCM]: 10.83 mL cm^−3
  VT, Two tissue compartment model [2TCM]: 13.78 mL cm^−3
[3]
  VT, Logan graphical method [T* = 40 min]: 21.96 ml/cm^3
  VT, Two tissue compartment model [2TCM]: 18.25 ml/cm^3
CBL, baseline
  VT, Logan graphical method [T* = 40 min]: 11.65 mL cm^−3
  VT, One tissue compartment model [1TCM]: 8.96 mL cm^−3
  VT, Two tissue compartment model [2TCM]: 11.68 mL cm^−3
[4]
  VT, Logan graphical method [T* = 40 min]: 28.10 ml/cm^3
  VT, Two tissue compartment model [2TCM]: 24.46 ml/cm^3
Caudate, baseline
  VT, Logan graphical method [T* = 40 min]: 12.71 mL cm^−3
  VT, One tissue compartment model [1TCM]: 9.58 mL cm^−3
  VT, Two tissue compartment model [2TCM]: 14.24 mL cm^−3
[5]
  VT, Logan graphical method [T* = 40 min]: 33.31 ml/cm^3
  VT, Two tissue compartment model [2TCM]: 26.67 ml/cm^3
Globus-pallidus, baseline
  VT, Logan graphical method [T* = 40 min]: 15.11 mL cm^−3
  VT, One tissue compartment model [1TCM]: 11.32 mL cm^−3
  VT, Two tissue compartment model [2TCM]: 14.90 mL cm^−3
[6]
  VT, Logan graphical method [T* = 40 min]: 24.15 ml/cm^3
  VT, Two tissue compartment model [2TCM]: 18.46 ml/cm^3
Hippocampus, baseline
  VT, Logan graphical method [T* = 40 min]: 10.31 mL cm^−3
  VT, One tissue compartment model [1TCM]: 8.04 mL cm^−3
  VT, Two tissue compartment model [2TCM]: 10.36 mL cm^−3
[7]
  VT, Logan graphical method [T* = 40 min]: 24.54 ml/cm^3
  VT, Two tissue compartment model [2TCM]: 18.97 ml/cm^3
Hypothalamus, baseline
  VT, Logan graphical method [T* = 40 min]: 11.42 mL cm^−3
  VT, One tissue compartment model [1TCM]: 8.36 mL cm^−3
  VT, Two tissue compartment model [2TCM]: 10.60 mL cm^−3
[8]
  VT, Logan graphical method [T* = 40 min]: 20.73 ml/cm^3
  VT, Two tissue compartment model [2TCM]: 18.09 ml/cm^3
Ifc, baseline
  VT, Logan graphical method [T* = 40 min]: 9.62 mL cm^−3
  VT, One tissue compartment model [1TCM]: 7.36 mL cm^−3
  VT, Two tissue compartment model [2TCM]: 10.89 mL cm^−3
[9]
  VT, Logan graphical method [T* = 40 min]: 31.86 ml/cm^3
  VT, Two tissue compartment model [2TCM]: 26.77 ml/cm^3
Insula, baseline
  VT, Logan graphical method [T* = 40 min]: 14.70 mL cm^−3
  VT, One tissue compartment model [1TCM]: 11.17 mL cm^−3
  VT, Two tissue compartment model [2TCM]: 13.96 mL cm^−3
[10]
  VT, Logan graphical method [T* = 40 min]: 34.11 ml/cm^3
  VT, Two tissue compartment model [2TCM]: 25.70 ml/cm^3
Midbrain, baseline
  VT, Logan graphical method [T* = 40 min]: 13.39 mL cm^−3
  VT, One tissue compartment model [1TCM]: 11.03 mL cm^−3
  VT, Two tissue compartment model [2TCM]: 14.71 mL cm^−3
[11]
  VT, Logan graphical method [T* = 40 min]: 21.53 ml/cm^3
  VT, Two tissue compartment model [2TCM]: 16.66 ml/cm^3
Motor, baseline
  VT, Logan graphical method [T* = 40 min]: 9.39 mL cm^−3
